#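 GI50: concentration for 50% inhibition of growth. TGI denotes the concentration required for complete inhibition of growth.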
# Key:
# Experiment in all cases: NCI tumour cell line growth inhibition, 384-well format
# [1] = tested on: 786-0 renal
# [2] = tested on: A498 renal
# [3] = tested on: A549 NSCLC
# [4] = tested on: ACHN renal
# [5] = tested on: BT-549 breast
# [6] = tested on: CAKI-1 renal
# [7] = tested on: CCRF-CEM leukemia
# [8] = tested on: COLO 205 colon
# [9] = tested on: DU-145 prostate
# [10] = tested on: EKVX NSCLC
# [11] = tested on: HCC-2998 colon
# [12] = tested on: HCT-116 colon
# [13] = tested on: HCT-15 colon
# [14] = tested on: HL-60(TB) leukemia
# [15] = tested on: HOP-62 NSCLC
# [16] = tested on: HOP-92 NSCLC
# [17] = tested on: HS 578T breast
# [18] = tested on: HT29 colon
# [19] = tested on: IGROV1 ovarian
# [20] = tested on: K-562 leukemia
# [21] = tested on: KM12 colon
# [22] = tested on: LOX IMVI melanoma
# [23] = tested on: M14 melanoma
# [24] = tested on: MALME-3M melanoma
# [25] = tested on: MCF7 breast
# [26] = tested on: MDA-MB-231 breast
# [27] = tested on: MDA-MB-435 melanoma
# [28] = tested on: MDA-MB-468 breast
# [29] = tested on: MOLT-4 leukemia
# [30] = tested on: NCI-H226 lung
# [31] = tested on: NCI-H23 lung
# [32] = tested on: NCI-H322M lung
# [33] = tested on: NCI-H460 NSCLC
# [34] = tested on: NCI-H522 lung
# [35] = tested on: NCI/ADR-RES ovarian
# [36] = tested on: OVCAR-3 ovarian
# [37] = tested on: OVCAR-4 ovarian
# [38] = tested on: OVCAR-8 ovarian
# [39] = tested on: PC-3 prostate
# [40] = tested on: RPMI-8226 leukemia
# [41] = tested on: RXF 393 renal
# [42] = tested on: SF-268 CNS
# [43] = tested on: SF-295 CNS
# [44] = tested on: SF-539 CNS
# [45] = tested on: SK-MEL-28 melanoma
# [46] = tested on: SK-MEL-5 melanoma
# [47] = tested on: SK-OV-3 ovarian
# [48] = tested on: SN12C renal
# [49] = tested on: SNB-19 CNS
# [50] = tested on: SNB-75 CNS
# [51] = tested on: SR leukemia
# [52] = tested on: SW-620 colon
# [53] = tested on: T-47D breast
# [54] = tested on: TK-10 renal
# [55] = tested on: U251 glioblastoma
# [56] = tested on: UACC-257 melanoma
# [57] = tested on: UACC-62 melanoma
# [58] = tested on: UO-31 renal
structure (smiles),measurement,setting,value
CNCc1ccc(-c2cc(-c3nc(-c4ccc(S(=O)(=O)C(C)C)cc4)cnc3N)on2)cc1,GI50,[1],0.15 µM
same,TGI,[1],0.486 µM
same,GI50,[2],0.0422 µM
same,TGI,[2],0.183 µM
same,GI50,[3],0.427 µM
same,TGI,[3],1.81 µM
same,GI50,[4],0.151 µM
same,TGI,[4],1.24 µM
same,GI50,[5],0.173 µM
same,TGI,[5],0.489 µM
same,GI50,[6],0.735 µM
same,TGI,[6],2.05 µM
same,GI50,[7],0.0409 µM
same,TGI,[7],0.161 µM
same,GI50,[8],1.04 µM
same,TGI,[8],6.58 µM
same,GI50,[9],0.25 µM
same,TGI,[9],1.32 µM
same,GI50,[10],1 µM
same,TGI,[10],2.23 µM
same,GI50,[11],0.0295 µM
same,TGI,[11],0.192 µM
same,GI50,[12],0.242 µM
same,TGI,[12],1.33 µM
same,GI50,[13],0.127 µM
same,TGI,[13],0.315 µM
same,GI50,[14],0.114 µM
same,TGI,[14],0.248 µM
same,GI50,[15],0.291 µM
same,TGI,[15],1.46 µM
same,GI50,[16],0.336 µM
same,TGI,[16],1.41 µM
same,GI50,[17],0.138 µM
same,TGI,[17],0.454 µM
same,GI50,[18],0.324 µM
same,TGI,[18],1.06 µM
same,GI50,[19],0.211 µM
same,TGI,[19],1.34 µM
same,GI50,[20],0.25 µM
same,TGI,[20],1.17 µM
same,GI50,[21],0.131 µM
same,TGI,[21],0.559 µM
same,GI50,[22],0.303 µM
same,TGI,[22],1.4 µM
same,GI50,[23],0.318 µM
same,TGI,[23],1.14 µM
same,GI50,[24],0.307 µM
same,TGI,[24],1.33 µM
same,GI50,[25],0.105 µM
same,TGI,[25],1.25 µM
same,GI50,[26],1.21 µM
same,TGI,[26],2.73 µM
same,GI50,[27],0.484 µM
same,TGI,[27],1.6 µM
same,GI50,[28],0.57 µM
same,TGI,[28],1.85 µM
same,GI50,[29],0.0663 µM
same,TGI,[29],0.204 µM
same,GI50,[30],3.07 µM
same,TGI,[30],9.52 µM
same,GI50,[31],0.162 µM
same,TGI,[31],0.916 µM
same,GI50,[32],0.139 µM
same,TGI,[32],1.18 µM
same,GI50,[33],0.0575 µM
same,TGI,[33],0.334 µM
same,GI50,[34],6.61 µM
same,TGI,[34],20.2 µM
same,GI50,[35],1.31 µM
same,TGI,[35],2.68 µM
same,GI50,[36],0.145 µM
same,TGI,[36],1.5 µM
same,GI50,[37],0.313 µM
same,TGI,[37],1.31 µM
same,GI50,[38],0.534 µM
same,TGI,[38],1.77 µM
same,GI50,[39],0.506 µM
same,TGI,[39],2.04 µM
same,GI50,[40],0.132 µM
same,TGI,[40],0.355 µM
same,GI50,[41],0.216 µM
same,TGI,[41],0.791 µM
same,GI50,[42],0.781 µM
same,TGI,[42],2.06 µM
same,GI50,[43],1.06 µM
same,TGI,[43],4.1 µM
same,GI50,[44],0.135 µM
same,TGI,[44],0.31 µM
same,GI50,[45],1.42 µM
same,TGI,[45],2.73 µM
same,GI50,[46],1.32 µM
same,TGI,[46],2.6 µM
same,GI50,[47],0.242 µM
same,TGI,[47],1.36 µM
same,GI50,[48],1.29 µM
same,TGI,[48],5.49 µM
same,GI50,[49],1.13 µM
same,TGI,[49],2.48 µM
same,GI50,[50],1.15 µM
same,TGI,[50],2.38 µM
same,TGI,[51],0.0185 µM
same,GI50,[52],0.267 µM
same,TGI,[52],1.26 µM
same,GI50,[53],10.4 µM
same,TGI,[53],22.2 µM
same,GI50,[54],0.0573 µM
same,TGI,[54],0.347 µM
same,GI50,[55],0.46 µM
same,TGI,[55],1.66 µM
same,GI50,[56],0.248 µM
same,TGI,[56],0.87 µM
same,GI50,[57],1.06 µM
same,TGI,[57],2.24 µM
same,GI50,[58],0.285 µM
same,TGI,[58],1.4 µM
CCCCS(=O)c1sc2nc(-c3cccs3)cc(-c3ccccc3)c2c1N (configuration not stated),GI50,[1],27.9 µM
same,TGI,[1],> 100 µM
same,GI50,[2],21.2 µM
same,TGI,[2],79.2 µM
same,GI50,[3],12.5 µM
same,TGI,[3],> 100 µM
same,GI50,[4],31.7 µM
same,TGI,[4],> 100 µM
same,GI50,[5],16.5 µM
same,TGI,[5],45.6 µM
same,GI50,[6],31.9 µM
same,TGI,[6],> 100 µM
same,GI50,[7],11.4 µM
same,TGI,[7],28.3 µM
same,GI50,[8],34.4 µM
same,TGI,[8],> 100 µM
same,GI50,[9],28.7 µM
same,TGI,[9],> 100 µM
same,GI50,[10],27.8 µM
same,TGI,[10],> 100 µM
same,GI50,[11],27.2 µM
same,TGI,[11],63.3 µM
same,GI50,[12],26 µM
same,TGI,[12],91 µM
same,GI50,[13],19.1 µM
same,TGI,[13],> 100 µM
same,GI50,[15],29.9 µM
same,TGI,[15],93.8 µM
same,GI50,[16],26.4 µM
same,TGI,[16],99.2 µM
same,GI50,[17],14.1 µM
same,TGI,[17],76.2 µM
same,GI50,[18],26 µM
same,TGI,[18],> 100 µM
same,GI50,[19],38.6 µM
same,TGI,[19],> 100 µM
same,GI50,[20],8.47 µM
same,TGI,[20],> 100 µM
same,GI50,[21],> 100 µM
same,TGI,[21],> 100 µM
same,GI50,[22],16.7 µM
same,TGI,[22],38.1 µM
same,GI50,[23],> 100 µM
same,TGI,[23],> 100 µM
same,GI50,[24],28.8 µM
same,TGI,[24],73.2 µM
same,GI50,[25],13.5 µM
same,TGI,[25],90.7 µM
same,GI50,[26],25.7 µM
same,TGI,[26],> 100 µM
same,GI50,[27],36.1 µM
same,TGI,[27],> 100 µM
same,GI50,[28],15 µM
same,TGI,[28],42.7 µM
same,GI50,[29],6.07 µM
same,TGI,[29],18.1 µM
same,GI50,[30],25.7 µM
same,TGI,[30],74.6 µM
same,GI50,[31],21.4 µM
same,TGI,[31],97.9 µM
same,GI50,[32],32.2 µM
same,TGI,[32],> 100 µM
same,GI50,[33],13.7 µM
same,TGI,[33],32.4 µM
same,GI50,[34],17 µM
same,TGI,[34],90.5 µM
same,GI50,[35],14 µM
same,TGI,[35],59 µM
same,GI50,[36],16.7 µM
same,TGI,[36],43.5 µM
same,GI50,[37],30.4 µM
same,TGI,[37],> 100 µM
same,GI50,[38],25.2 µM
same,TGI,[38],> 100 µM
same,GI50,[40],4.38 µM
same,TGI,[40],14.6 µM
same,GI50,[41],20.4 µM
same,TGI,[41],95.5 µM
same,GI50,[42],> 100 µM
same,TGI,[42],> 100 µM
same,GI50,[43],19.6 µM
same,TGI,[43],96.5 µM
same,GI50,[44],23.9 µM
same,TGI,[44],52.2 µM
same,GI50,[45],> 100 µM
same,TGI,[45],> 100 µM
same,GI50,[46],13.8 µM
same,TGI,[46],26.8 µM
same,GI50,[47],31.9 µM
same,TGI,[47],> 100 µM
same,GI50,[48],65 µM
same,TGI,[48],> 100 µM
same,GI50,[49],32.5 µM
same,TGI,[49],> 100 µM
same,GI50,[50],27.2 µM
same,TGI,[50],> 100 µM
same,GI50,[51],3.73 µM
same,TGI,[51],8.78 µM
same,GI50,[52],> 100 µM
same,TGI,[52],> 100 µM
same,GI50,[53],19.2 µM
same,TGI,[53],> 100 µM
same,GI50,[54],29.5 µM
same,TGI,[54],> 100 µM
same,GI50,[55],23.2 µM
same,TGI,[55],> 100 µM
same,GI50,[56],26.9 µM
same,TGI,[56],84.1 µM
same,GI50,[57],> 100 µM
same,TGI,[57],> 100 µM
same,GI50,[58],29.2 µM
same,TGI,[58],> 100 µM

# Source: PubChem BioAssay (NCI)
